pEC50: −log10 of the molar value.
Molecular target: T1, human M4 muscarinic acetylcholine receptor (Homo sapiens, UniProt P08173)
T1 construct: expressed in transfected cells
T1 sequence (P08173 1-479): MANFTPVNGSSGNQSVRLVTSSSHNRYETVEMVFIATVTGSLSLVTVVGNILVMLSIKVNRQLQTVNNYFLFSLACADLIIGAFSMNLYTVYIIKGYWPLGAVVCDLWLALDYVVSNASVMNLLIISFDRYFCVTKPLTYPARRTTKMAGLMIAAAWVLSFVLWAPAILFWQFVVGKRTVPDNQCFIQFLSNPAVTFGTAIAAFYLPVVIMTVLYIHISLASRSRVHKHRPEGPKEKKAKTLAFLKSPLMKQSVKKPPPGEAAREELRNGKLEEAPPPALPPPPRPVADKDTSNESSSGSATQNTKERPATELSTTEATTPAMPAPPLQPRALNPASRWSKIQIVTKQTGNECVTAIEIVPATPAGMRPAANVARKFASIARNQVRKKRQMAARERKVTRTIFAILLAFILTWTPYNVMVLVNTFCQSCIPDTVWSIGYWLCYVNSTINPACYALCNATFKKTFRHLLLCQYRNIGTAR
Experiment: human FLIPR-based M4 PAM assay (CHO-K1 cells with human M4 receptor and Gαqi5, calcium dye fluorescence, EC20 acetylcholine)
Format: cell-based
Settings: inflection point (IP) of the dose response curve, human M4 receptor/Gαqi5, acetylcholine at 20% of maximum response, read-out: M4PAM Hu IP
Protocol: (§1) In a typical experiment the M4 muscarinic acetylcholine receptor modulating activity of the compounds of the present invention was determined in accordance with the following experimental method. CHO-K1 cells stably transfected with human M4 receptor and chimeric G-protein Gαqi5 (Coward P, et al., Analytical Biochemistry, 270:242-248 (1999)) are thawed from liquid N2 storage, resuspended in growth medium, plated in black, clear bottom 384 well plates, and incubated 16-20 hours at 37° C., 5% CO2. On the day of assay, growth medium is removed, the cells are washed 2 times with wash buffer, and cells are incubated in dye loading buffer at 37° C., 5% CO2 for ˜1 hour. Following dye loading the cell plates are placed in a FLIPR Tetra instrument and while monitoring dye fluorescence (excitation […]), 10 uL of test substance at increasing concentrations is added, and fluorescence values are recorded for 4 min. Next, 10 uL of acetylcholine is added (final concentration calculated so as to achieve 20% of the maximum acetycholine response), and the fluorescence reading is continued for 3.5 min. In some cases, a third addition of acetylcholine (final concentration calculated to achieve 70% of the maximal acetylcholine response) is performed. The resulting dose response curves are fit to a 4 parameter logistic equation and the final result is determined as the inflection point (IP) of the curve
as §1, with “CHO-K1” for “In a typical experiment the M4 muscarinic acetylcholine receptor modulating activity of the compounds of the present invention was determined in accordance with the following experimental method. CHO-K1”, “Gαqi5” for “Gαqi5 (Coward P, et al., Analytical Biochemistry, 270:242-248 (1999))”, “performed.” for “performed. The resulting dose response curves are fit to a 4 parameter logistic equation and the final result is determined as the inflection point (IP) of the curve”

SMILES | pEC50
COc1cc2ccc(-c3nc(C)ccc3-c3cnn(CC4(C)CCOC4)c3)cc2nn1 (single isomer, unassigned) [Example 98, 3-methoxy-7-(6-methyl-3-{1-[(3-methyltetrahydrofuran-3-yl)methyl]-1H-pyrazol-4-yl}pyridin-2-yl)cinnoline] | 7.24
COc1cc2ccc(-c3ncccc3-c3cnn(CC4(C)CCCCC4)c3)cc2nn1 [Example 1, 3-methoxy-7-(3-{1-[(1-methylcyclohexyl)methyl]-1H-pyrazol-4-yl}pyridin-2-yl)cinnoline] | 7.66
Cc1ccc(-c2cnn(CCC(C)(C)F)c2)c(-c2ccc3cccnc3c2)n1 [Example 2, 7-(3-(1-(3-fluoro-3-methylbutyl)-1H-pyrazol-4-yl)-6-methylpyridin-2-yl)quinoline] | 7.15
COc1cc2ccc(-c3nc(C)ccc3-c3cnn(CCC(C)(C)F)c3)cc2nn1 [Example 3, 7-{3-[1-(3-fluoro-3-methylbutyl)-1H-pyrazol-4-yl]-6-methylpyridin-2-yl}-3-methoxycinnoline] | 7.24
COc1cc2ccc(-c3nc(C)ccc3-c3cnn(Cc4ccccc4)c3)cc2nn1 [Example 5, 7-[3-(1-benzyl-1H-pyrazol-4-yl)-6-methylpyridin-2-yl]-3-methoxycinnoline] | 7.03
Cc1ccc(-c2cnn(CC(C)(C)C)c2)c(-c2ccc3cccnc3c2)n1 [Example 6, 7-{3-[1-(2,2-dimethylpropyl)-1H-pyrazol-4-yl]-6-methylpyridin-2-yl}quinoline] | 7.72
COc1cc2ccc(-c3nc(C)ccc3-c3cnn(CC4CCC4)c3)cc2nn1 [Example 8, 7-{3-[1-(cyclobutylmethyl)-1H-pyrazol-4-yl]-6-methylpyridin-2-yl}-3-methoxycinnoline] | 7.14
Cc1ccc(-c2cnn(CC34CC(C3)C4)c2)c(-c2ccc3cccnc3c2)n1 [Example 9, 7-{3-[1-(bicyclo[1.1.1]pent-1-ylmethyl)-1H-pyrazol-4-yl]-6-methylpyridin-2-yl}quinoline] | 7.68
COc1cc2ccc(-c3nc(C)ccc3-c3cnn(CC45CC(C4)C5)c3)cc2nn1 [Example 10, 7-{3-[1-(bicyclo[1.1.1]pent-1-ylmethyl)-1H-pyrazol-4-yl]-6-methylpyridin-2-yl}-3-methoxycinnoline] | 7.70
Cc1ccc(-c2cnn(CC34CC5CC(CC(C5)C3)C4)c2)c(-c2ccc3cccnc3c2)n1 [Example 12, 7-(3-(1-(((3r,5r,7r)-adamantan-1-yl)methyl)-1H-pyrazol-4-yl)-6-methylpyridin-2-yl)quinoline] | 7.10

More lines, now with the values ahead:

pEC50 | SMILES
6.77 | COc1cc2ccc(-c3nc(C)ccc3-c3cnn(CC4(C)CCOC4)c3)cc2nn1 (single isomer, unassigned) [Example 99, 3-methoxy-7-(6-methyl-3-{1-[(3-methyltetrahydrofuran-3-yl)methyl]-1H-pyrazol-4-yl}pyridin-2-yl)cinnoline]
7.04 | Cc1ccc(-c2cnn(Cc3ccccc3)c2)c(-c2ccc3cccnc3c2)n1 [Example 4, 7-[3-(1-benzyl-1H-pyrazol-4-yl)-6-methylpyridin-2-yl]quinoline]
6.86 | Cc1ccc(-c2cnn(CC3(C)CCCCC3)c2)c(-c2ccc3cc(C(F)(F)F)cnc3c2)n1 [Example 7, 7-(6-methyl-3-{1-[(1-methylcyclohexyl)methyl]-1H-pyrazol-4-yl}pyridin-2-yl)-3-(trifluoromethyl)quinoline]
7.05 | Cc1ccc(-c2cnn(CCC(C)C(F)(F)F)c2)c(-c2ccc3cccnc3c2)n1 (stereo not drawn) [Example 11, 7-{6-methyl-3-[1-(4,4,4-trifluoro-3-methylbutyl)-1H-pyrazol-4-yl]pyridin-2-yl}quinoline]
7.43 | COc1cc2ccc(-c3nc(C)ccc3-c3cnn(CC45CC6CC(CC(C6)C4)C5)c3)cc2nn1 [Example 13, 7-(3-(1-(((3r,5r,7r)-adamantan-1-yl)methyl)-1H-pyrazol-4-yl)-6-methylpyridin-2-yl)-3-methoxycinnoline]
